Drawing on patent publication US20100137309A1, “FUNGICIDES PHENYL-PYRIMIDNYL-AMINO DERIVATIVES” (priority 2007, published 2010), this text covers logP, Log p and good protection for 28 compounds.

The structures appear in SMILES notation.

System in one data set: not listed separately
Put plainly: Log p of the compounds of Table A.
Settings: not given
One may read the logP as a log measure of how a compound divides between an organic and an aqueous phase. A higher logP goes with higher lipophilicity. Regarding `O=C(NCCCN1CCCCCC1=O)c1cc(-c2ccnc(Nc3cccc(Cl)c3)n2)ccn1` [Compound A1, 4-{2-[(3-chlorophenyl)amino]pyrimidin-4-yl}-N-[3-(2-oxoazepan-1-yl)propyl]pyridine-2-carboxamide], the logP came to 2.98.
As for `CC(C)CCNC(=O)c1cc(-c2ccnc(Nc3cccc(Cl)c3)n2)ccn1` [Compound A19, 4-{2-[(3-chlorophenyl)amino]pyrimidin-4-yl}-N-(3-methylbutyl)pyridine-2-carboxamide], the logP was found to be 4.7.

Still in this data set, the particulars now being: Table A.
`CC(CN(C)C)NC(=O)c1cc(-c2ccnc(Nc3cccc(Cl)c3)n2)ccn1` (stereo not shown) [Compound A38] returned a Log p of 1.81.
`COCCCNC(=O)c1cc(-c2ccnc(Nc3cccc(Cl)c3)n2)ccn1` [Compound A39] gave a Log p of 3.31.
`O=C(NC1CCCC1)c1cc(-c2ccnc(Nc3cccc(Cl)c3)n2)ccn1` [Compound A40] had a Log p of 4.48.
On the same count and under the same terms, next, `CCC(CC)NC(=O)c1cc(-c2ccnc(Nc3cccc(Cl)c3)n2)ccn1` [Compound A44]: 4.72; `CCC(COC)NC(=O)c1cc(-c2ccnc(Nc3cccc(Cl)c3)n2)ccn1` (stereo not shown) [Compound A45]: 4.02.
The same measure, in the same setting: next, `CCC(C)NC(=O)c1cc(-c2ccnc(Nc3cccc(Cl)c3)n2)ccn1` (stereo not shown) [Compound A46]: 4.3.
`O=C(NC1CCC1)c1cc(-c2ccnc(Nc3cccc(Cl)c3)n2)ccn1` [Compound A47] showed a Log p of 4.1.
Compound `CCCNC(=O)c1cc(-c2ccnc(Nc3cccc(Cl)c3)n2)ccn1` [Compound A56] returned a Log p of 3.8.
`CC(C)NC(=O)c1cc(-c2ccnc(Nc3cccc(Cl)c3)n2)ccn1` [Compound A57] showed a Log p of 3.83.
Compound `CCCCNC(=O)c1cc(-c2ccnc(Nc3cccc(Cl)c3)n2)ccn1` [Compound A58] gave a Log p of 4.31.
The compound `CNC(=O)c1cc(-c2ccnc(Nc3cccc(Cl)c3)n2)ccn1` [Compound A59] returned a Log p of 2.94.
`O=C(NC1CCS(=O)(=O)C1)c1cc(-c2ccnc(Nc3cccc(Cl)c3)n2)ccn1` (stereo not shown) [Compound A60] came in with a Log p of 2.8.
On the same count and under the same terms, next, `CCOC1CCC(NC(=O)c2cc(-c3ccnc(Nc4cccc(Cl)c4)n3)ccn2)CC1` (stereo not shown) [Compound A61]: 4.54.

System in another data set: not listed separately
Put plainly: Log p of the compounds of Table A.
Settings: not given
This is another data set of the same source.
The compound `CN(C)C(=O)c1cc(-c2ccnc(Nc3cccc(Cl)c3)n2)ccn1` [Compound A76, 4-{2-[(3-chlorophenyl)amino]pyrimidin-4-yl}-N,N-dimethylpyridine-2-carboxamide] showed a logP of 2.5.
`CCN(CC)C(=O)c1cc(-c2ccnc(Nc3cccc(Cl)c3)n2)ccn1` [Compound A77, 4-{2-[(3-chlorophenyl)amino]pyrimidin-4-yl}-N,N-diethylpyridine-2-carboxamide] returned a logP of 3.19.
Take `CON=C(C)c1cc(-c2ccnc(Nc3cccc(Cl)c3)n2)ccn1` [Compound A93, N-(3-chlorophenyl)-4-{2-[-N-methoxyethanimidoyl]pyridin-4-yl}pyrimidin-2-amine]: the logP was found to be 4.46.
The same measure, in the same setting: next, `CC(=NNCCC#N)c1cc(-c2ccnc(Nc3cccc(Cl)c3)n2)ccn1` [Compound A108, 3-{2-[1-(4-{2-[(3-chlorophenyl)amino]pyrimidin-4-yl}pyridin-2-yl)ethylidene]hydrazinyl}propanenitrile]: 2.44.
Same read-out and setting: next, `CC(=O)c1cc(-c2ccnc(Nc3cccc(Cl)c3)n2)ccn1` [Compound A110, 1-(4-{2-[(3-chlorophenyl)amino]pyrimidin-4-yl}pyridin-2-yl)ethanone]: 3.5.

System in the next data set: not listed separately
Put plainly: Log p of the compounds of Table A.
Settings: not given
The source holds these as a separate data set.
Regarding `COCCN(C)C(=O)c1cc(-c2ccnc(Nc3cc(F)ccc3F)n2)ccn1` [Compound A230], the Log p turned out to be 2.52.
On to `CCN(C)C(=O)c1cc(-c2ccnc(Nc3cc(Cl)ccc3F)n2)ccn1` [Compound A232], for which the Log p came out at 2.94.
Same read-out and setting: as for `CCCN(CC)C(=O)c1cc(-c2ccnc(Nc3cc(Cl)ccc3F)n2)ccn1` [Compound A234], the figure is 3.69; as for `CCCN(CC1CC1)C(=O)c1cc(-c2ccnc(Nc3cc(Cl)ccc3F)n2)ccn1` [Compound A242], 4.20; as for `CCCCN(C)C(=O)c1cc(-c2ccnc(Nc3cccc(C(C)C)c3)n2)ccn1` [Compound A262], 4.04.

System in a further data set: not listed separately
The experiment in a line: Log p determination of the compounds of Table A.
Settings: not given
`CCN(CC)C(=S)c1cc(-c2ccnc(Nc3cccc(Cl)c3)n2)ccn1` [Compound A391, 4-{2-[(3-chlorophenyl)amino]pyrimidin-4-yl}-N,N-diethylpyridine-2-carbothioamide] showed a logP of 3.19.

System in the next data set: not listed separately
The experiment in a line: Log p of the compounds of Table A.
Settings: not given
This is another data set of the same source.
For `CC(C)N(C)C(=O)c1cc(-c2ccnc(Nc3ccc(N4CCCC4=O)cc3)n2)ccn1` [Compound A325], the Log p is 2.04.

Another data set deals with Sphaerotheca fuliginea. Put plainly: In vivo test on Sphaerotheca fuliginea (cucurbits powdery mildew), DMF/emulsifier preparation (Example B). The note with it: 500 ppm; young cucurbit plants sprayed preventively one day before inoculation; grading 7 days after contamination. The protocol: In Vivo Test on Sphaerotheca fuliginea (Cucurbits Powdery Mildew) To produce a suitable preparation of active compound, 1 part by weight of active compound is mixed with 49 parts by weight of solvent (N,N-dimethylformamide) and 1 part by weight of emulsifier (alkylarylpolyglycolether), and the concentrate is diluted with water to the desired concentration. To test for preventive activity, young cucurbit plants are sprayed with the preparation of active compound at the stated rate of application. One day after this treatment, the plants are inoculated with an aqueous spore suspension of Sphaerotheca fuliginea. […] Grading is carried out 7 days after the contamination, in comparison with the control plants. […] A16.
In the case of `COCCOC(=O)c1cc(-c2ccnc(Nc3cccc(OC)c3)n2)ccn1` [Compound A16], the good protection result was “at least 70%”.
